Paper PMC8044163, “Vitamin D and lumisterol derivatives can act on liver X receptors (LXRs)” (Scientific Reports, 2021)
Read-outs that look alike come from different tables or passages of the source.

Assays:
LBD of LXRβ = biological target: T1, LBD of LXRβ (Homo sapiens, UniProt P55055); test: LanthaScreen TR-FRET LXRβ coactivator assay (LXR binding assay); format: biochemical
T1 construct: purchased Thermo Fisher Scientific
T1 sequence (P55055 222-460 limits assumed): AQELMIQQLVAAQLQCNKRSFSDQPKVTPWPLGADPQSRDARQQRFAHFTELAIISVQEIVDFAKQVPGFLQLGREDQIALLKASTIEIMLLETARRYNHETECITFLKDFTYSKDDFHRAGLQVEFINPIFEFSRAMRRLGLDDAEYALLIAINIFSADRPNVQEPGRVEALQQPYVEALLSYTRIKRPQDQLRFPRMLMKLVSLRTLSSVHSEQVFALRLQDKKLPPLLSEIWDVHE
Protocol: (§1) Binding assays of graded concentrations of vitamin D3 or lumisterol hydroxyderivatives to LXRα/β were performed using the LanthaScreen TR-FRET LXRα/β Coactivator kit (Thermo Fisher Scientific, Inc., Waltham, MA) following the manufacture’s protocol. Briefly, after addition of LXRα/β-LBD to the derivatives, a mixture of peptide (Fluorescein-TRAP220/DRIP-2 for LXRα or Fluorescein-D22 for LXRβ) and antibody (Tb-anti-GST) was added to the reaction followed by incubation in room temperature for 2 h. TR-FRET ratio was calculated by dividing the emission at 520 nm by the emission at 495 nm using Synergy neo2 (BioTek, Winooski, VT).

LBD of LXRα = biological target: T2, LBD of LXRα (Homo sapiens, UniProt Q13133); test: LanthaScreen TR-FRET LXRα coactivator assay (LXR binding assay); format: biochemical
T2 construct: after addition of LXRα/β-LBD to the derivatives; purchased Thermo Fisher Scientific
T2 sequence (Q13133 209-447 limits assumed): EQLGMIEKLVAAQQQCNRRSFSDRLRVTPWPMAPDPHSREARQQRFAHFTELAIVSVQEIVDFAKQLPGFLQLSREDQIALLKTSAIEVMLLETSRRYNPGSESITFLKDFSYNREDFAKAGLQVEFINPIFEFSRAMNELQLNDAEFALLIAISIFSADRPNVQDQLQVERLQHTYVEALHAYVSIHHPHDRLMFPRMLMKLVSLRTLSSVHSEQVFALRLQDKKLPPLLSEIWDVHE
Protocol: as §1

VDR = biological target: T3, VDR (Homo sapiens, UniProt P11473); test: Translocation of VDR to the nucleus, imaging flow cytometry in HaCaT; format: cell-based; conditions: 10^–7 M, 12 h
T3 construct: endogenous in cells; host or cells: HaCaT keratinocytes
T3 sequence (P11473 1-427): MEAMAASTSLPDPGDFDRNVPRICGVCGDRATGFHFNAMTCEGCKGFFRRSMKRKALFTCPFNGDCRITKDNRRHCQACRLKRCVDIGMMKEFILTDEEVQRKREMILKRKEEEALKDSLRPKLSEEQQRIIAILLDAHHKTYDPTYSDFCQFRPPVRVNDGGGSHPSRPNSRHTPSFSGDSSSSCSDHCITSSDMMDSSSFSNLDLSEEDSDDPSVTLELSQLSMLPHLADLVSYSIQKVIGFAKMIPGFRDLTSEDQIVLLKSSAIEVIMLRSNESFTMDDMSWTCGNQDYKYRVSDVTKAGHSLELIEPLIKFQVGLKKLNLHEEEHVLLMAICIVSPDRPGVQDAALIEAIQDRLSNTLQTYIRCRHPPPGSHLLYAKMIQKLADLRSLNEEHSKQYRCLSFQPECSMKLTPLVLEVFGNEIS

genes downstream of LXR = test: qPCR of genes downstream of LXR in murine dermal fibroblasts; format: cell-based, mouse; conditions: 10^–7 M, 24 h
Protocol: All animal studies followed guidelines outlined by the NIH Guide for the Care and Use of Laboratory Animals and protocols were approved by the Institutional Animal Care and Use Committee at the NIEHS or the UAB. The study was carried out in compliance with the ARRIVE guidelines (http://www.nc3rs.org.uk/page.asp?id=1357). Skin samples from newborn C57BL/6 mice were collected at the NIEHS. Dermal fibroblasts were isolated from the skin of newborn mice, 1–2 day old. Briefly, we followed the protocols described previously. The skin was washed in PBS, cut into smaller pieces and incubated in 2.4 U/ml of dispase II (Roche) overnight at 4 °C. The dermis was separated from the epidermis and incubated in 0.1% collagenase (Roche) at 4 °C overnight. Next day, it was cut into smaller pieces and incubated for 1 h in 0.25% Trypsin (CellGrow) at 37 °C. Single cell suspension was prepared by pipetting and draining through a cell strainer. After centrifugation, cell pellets were suspended in DMEM medium containing 10% charcoal-stripped fetal bovine serum (cFBS), mouse fibroblasts growth factor (FGF) and 1% antibiotic, and inoculated into tissue culture dishes (Midwest Scientific, TPP). Cells, in early passages, from different mice were pooled together to provide representative samples for experiments. Fibroblasts were cultured in Petri dishes (10 cm in diameter) in DMEM and 10% cFBS and triplicate semi-confluent cultures were treated as described.
RNA isolated from either fibroblasts, HaCaT cells or brain was submitted for cDNA synthesis (High Capacity cDNA Reverse Transcription Kit with RNase Inhibitor, Applied Biosystems) following the manufacturers’ protocols. RT-PCR was carried out using Cyber green, in triplicates; as previously described. Approximately, 750 ng of cDNA was used for PCR reactions. GAPDH and CIC-B were used as internal controls. Primer sequences are listed in Supplementary Table 27. Data were analyzed using GraphPad Prism statistical software one way ANOVA or t-test, where appropriate; *p < 0.05; **p < 0.01; ***p < 0.001.

LXRα/β = test: Ligand induced translocation of LXRα/β to the nucleus, imaging flow cytometry in HaCaT; format: cell-based, human; conditions: 10^–7 M, 12 h
Protocol: (§2) HaCaT cells were plated in DMEM plus 5% cFBS either on a sterile glass cover slip placed in a well of a 6-well plates for immunofluorescence (IF) assays or TPP Petri dishes for image-stream flow cytometry, and treated with 10^–7 M D3- or L3-hydroxyderivatives or 0.1% ethanol (vehicle) as a negative control was added to each well, and the cells were incubated for 12 or 24 h at 37 °C with 5% CO2. For IF the cells were fixed in 4% paraformaldehyde for 15 min, incubated in 0.5% Triton X-100 in phosphate-buffered saline (PBS) for 5 min, and washed 3 times in PBS. After blocking with 2% bovine serum albumin (BSA) in PBS for 1 h at room temperature, the cells were treated with an anti-LXRα antibody (Novus Biologicals, LLC, Centennial, CO) at 1:200 in PBS supplemented with 2% BSA overnight in 4 °C. After washing the slides were incubated with a mouse anti-rabbit IgG-FITC (Santa Cruz Biotechnology, Inc, Dallas, TX) at 1:200 dilution for 1.5 h at 37 °C. After washing the slides were mounted using propidium iodide (PI) (Vector Labs, Burlingame, California) as a nuclear counterstain. The slides were examined using a KEYENCE America BZ-X710 Fluorescence Microscope (Itasca, IL). The images were subsequently analyzed using the JACoP plugin for colocalization analysis with ImageJ[74]. Five separate high-power field (40×) images were converted to grayscale and analyzed for each condition. Manders’ coefficient (M1), calculated using a preset threshold, was used to quantify the degree of colocalization between PI and LXRα with 0 representing no colocalization, and 1 representing perfect colocalization.
For Image Stream II (Amnis, Seattle, WA, USA) cytometer analyses, HaCaT cells were detached and processed as previously described. The cells were fixed with paraformaldehyde and permeabilized in methanol containing buffer[78],[79] and Hoechst stain (r37165, ThermoFisher) and rabbit antibodies to LXRα/β (sc 377260, AF 647, SantaCruz) or VDR (sc-13133, AF 488, SantaCruz) as described previously. Data were analyzed using IDEAS software (Amnis, Seattle, WA, USA).

LXRα = biological target: T4, LXRα (Homo sapiens, UniProt Q13133); test: Ligand induced translocation of LXRα to the nucleus, immunofluorescence in HaCaT; format: cell-based; conditions: 10^−7 M, 24 h
T4 construct: endogenous in cells; host or cells: HaCaT keratinocytes
T4 sequence (Q13133 1-447): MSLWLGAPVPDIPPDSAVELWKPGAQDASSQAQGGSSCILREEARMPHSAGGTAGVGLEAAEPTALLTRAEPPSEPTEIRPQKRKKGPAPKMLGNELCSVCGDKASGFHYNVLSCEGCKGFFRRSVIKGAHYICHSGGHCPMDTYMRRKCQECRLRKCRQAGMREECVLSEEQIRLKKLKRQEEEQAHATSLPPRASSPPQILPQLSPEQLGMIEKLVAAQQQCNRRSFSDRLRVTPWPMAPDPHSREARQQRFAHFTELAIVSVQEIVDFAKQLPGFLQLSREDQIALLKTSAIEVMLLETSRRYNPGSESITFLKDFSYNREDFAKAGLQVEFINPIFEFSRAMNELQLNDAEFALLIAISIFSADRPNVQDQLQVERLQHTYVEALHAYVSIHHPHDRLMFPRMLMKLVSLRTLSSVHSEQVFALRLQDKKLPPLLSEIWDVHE
Protocol: as §2

[1] = system: LXR-response element (LXRE)-driven reporter in CHO cells; test: LXRE-driven luciferase reporter assay in CHO cells; format: cell-based; conditions: 10^–7 M, CHO and HaCaT cells (Fig. 4C)
Protocol: The effects of vitamin D3 and L3 hydroxyderivatives were tested on the LXRE transcriptional activity using pGreenFire1-LXRE-in-ApoE Lentivirus (System Biosciences, Palo Alto, CA). This plasmid was transduced in CHO and HaCaT cells following the manufacture’s protocol and the cells used as a stable LXRE expressed tool. Briefly, the virus was transduced into the cells using TransDux MAX Lentivirus Transduction Enhancer (System Biosciences, Palo Alto, CA) and screened to select the transduced cells using puromycin. The transduced cells were treated with the compounds for 24 h in media containing 5% cFBS (charcoal-treated fetal bovine serum) and the luminescence was read by ONE-Glo Luciferase Assay System (Promega, Madison, WI) using Cytation 5 (BioTek, Winooski, VT).

[2] = agonist, average values, read-out: LXRβ EC50
[3] = agonist, average values, read-out: LXRα EC50

C=C1CC[C@H](O)C/C1=C/C=C1\CCC[C@]2(C)[C@@H]([C@H](C)CCCC(C)C)CC[C@@H]12 [D3, Vitamin D3, reference compound]
EC50 (LBD of LXRβ): 890 nM | EC50 (LBD of LXRα): 760 nM

C=C1CC[C@H](O)C/C1=C/C=C1\CCC[C@@]2(C)[C@H]1CC[C@@H]2[C@@](C)(O)CCCC(C)(C)O [20,25(OH)2D3]
EC50 (LBD of LXRβ; [2]): 2100 nM | EC50 (LBD of LXRα; [3]): 350 nM

CC(C)CCC(O)[C@@H](C)[C@H]1CC[C@H]2C3=CC=C4C[C@@H](O)CC[C@@]4(C)[C@@H]3CC[C@]12C (some centres unmarked) [22(OH)L3]
EC50 (LBD of LXRβ; [2]): 14000 nM | EC50 (LBD of LXRα; [3]): 640 nM

C[C@@H](CO)CCC[C@@H](C)[C@H]1CC[C@H]2C3=CC=C4C[C@@H](O)CC[C@@]4(C)[C@@H]3CC[C@]12C [(25R)-27(OH)L3]
EC50 (LBD of LXRβ; [2]): 550 nM | EC50 (LBD of LXRα; [3]): 820 nM

C=C1/C(=C\C=C2/CCC[C@@]3(C)[C@H]2CC[C@@H]3[C@@](C)(O)CCCC(C)C)C[C@@H](O)C[C@@H]1O [1,20(OH)2D3]
translocation of VDR from the cytoplasm to the nucleus (VDR): increased translocation | EC50 (LBD of LXRβ; [2]): 270 nM | ApoE (apolipoprotein E) expression (genes downstream of LXR): enhanced | Cyp7a1 expression (genes downstream of LXR): inhibited | translocation of LXRα/β from the cytoplasm to the nucleus (LXRα/β): increased translocation | translocation of LXRα to the nucleus (immunofluorescence, Manders' coefficient) (LXRα): induced translocation

C=C1C(=CC=C2CCCC3(C)C2CCC3C(C)(O)CCC(O)C(C)C)CC(O)CC1O (centres unmarked) [1,20,24(OH)3D3]
LXRE luciferase (transcriptional) activity [1]: strongest stimulatory effects

CC(C)CCC[C@](C)(O)[C@H]1CC[C@H]2C3=CC=C4C[C@@H](O)CC[C@]4(C)[C@H]3CC[C@@]21C [20(OH)7DHC, reference compound]
Abcg5 expression (genes downstream of LXR): stimulated | Abcg8 expression (genes downstream of LXR): inhibited | ApoE (apolipoprotein E) expression (genes downstream of LXR): inhibited | Cyp7a1 expression (genes downstream of LXR): inhibited | Fas (fatty acid synthase) expression (genes downstream of LXR): stimulated
